In patent publication US10874740B2, “5-ALA derivatives and use thereof” (UNIVERSITE DE GENEVE, priority 2015, dated 2020):
Structures can show the parent of a compound that is named as a salt.

Assays:
chick embryos = assay: In vivo chicken acute toxicity (chick embryo, intravenous)
Experimental: (§1) 5-ALA-Hex is known for its pronounced acute toxicity after intravenous injection and the LD50 of the compounds of the invention was determined by escalating doses of compounds dissolved in milliQ™ water and pH adjusted to 7.4 administered to embryos via intravenous injection. The viability of chick embryos has been evaluated after 24 h after injection. […] This higher LD50 value is believed to be a consequence of the rapid conversion into 5-ALA-Hex. Therefore, the very high doses of Compound 1 that were tolerated by chick embryos (LD50 of 500 μmol/kg) are consistent since this compound is much more slowly converted into 5-ALA-Hex (and 5-ALA) in all tissues expressing alkaline phosphatase.

[1] = as above; settings: chicken (chick embryo), in vivo; chick embryos, intravenous injection, viability 24 h after injection
Experimental: as §1

[2] = Chemical stability in buffer at three pH values (UPLC); assay type: physicochemical; settings: 5 mM, 37° C., 20 mM buffers pH 4.00, 7.40, 8.90
Experimental: Chemical stability was investigated for compounds of the invention as compared to the known ester ALA-Hex as follows: Chemical stability was assayed at three different pH value by dissolving the compound of interest (or ALA-Hex control) in an appropriate buffer (pH=4.00 acetate buffer; pH=7.40 phosphate buffer; and pH 8.90 borate buffer). The buffer concentration was 20 mM. The solution was kept at 37° C. and assayed at different time points. Quantification of the starting material and degradation products was performed by UPLC using the Thermo Scientific Accela UPLC-MS system. The column used was Macherey-Nagel Nucleodur C18 Gravity 50/2 1.8 μm. 10 μL aliquots were injected and eluted using 10% acetonitrile and 90% ammonium formate buffer (10 mM) isocratic elution. The column was kept at 40° C. and the flow rate was 0.4 mL/min. The quantification was performed by integrating AUCs of the chromatograms of the peaks of interest at 220 nm.

CAM U87Mg spheroid tumor = assay: In vivo CAM U87Mg spheroid tumor model, fluorescence imaging; set-up: species or system chick; settings: Compound 7 100 μmol/kg; for tumor fluorescence signal / contrast: intravenous, Compound 1 300 μmol/kg, PpIX 100 μmol/kg, imaging 0, 30, 60, 120 min
Experimental: Compounds of the invention were tested in vivo in using the chorioallantoic membrane (CAM) model U87-Mg tumor spheroids were obtained using a modified procedure (De Magalhaes et al., 2010, 20-26) using 2.5×10^4 cells/mL. Spheroids grew 4 days before inoculation into the CAM. On embryonic development day (EDD) 7, the hole in the eggshell was enlarged to allow access to the CAM vasculature, using a needle (25 Gauge) a hole was drilled in the CAM. A binocular lens Leica M80 (Wetzlar, Germany) was used to perform the inoculation. Once the hole was pierced in the CAM, the spheroid (approximately of 200 μm) was placed in the cavity beneath the hole. Cell medium (20 μL) was placed on the spheroid to allow the tumor to attach to the CAM membrane and develop. Then, the eggs were sealed with parafilm and returned to the incubator to let spheroids grow until EDD13. Compounds were injected intravenously into the CAM vasculature (10-40 μL), preferentially into a large blood vessels using a needle (gauge 33, 51 mm, tap N type) attached to a 100 μL syringe (Hamilton, Reno, Nev.). Fluorescence imaging of tumor nodules was done with 12-bit monochrome CDD camera (Retiga EX Q-Imaging Canada) connected to fluorescence Eclipse E600 FN microscope with a CFI achromat objective characterized by magnification 4×, numerical aperture of 0.10 and a working distance of 30 mm (Nikon, Tokyo, Japan). A conical holder was used to place the eggs during experimentation under the objective of fluorescence microscope. A mercury arc lamp HBO 103/W/2 (MS Scientific Berlin, Germany) was used to provide illumination. For the detection of PpIX a BV-2A cube (Nikon, Tokyo, Japan) with an excitation filter: 400-440 nm, a dichroic mirror (455 nm) and an emission filter (470 nm) was used. A hollow slider filter 650/50 nm was added. Band pass filter 560/40 was used to image the autofluorescence of tumors. All pictures were taken with a 90 ms exposure and gain set at 50. […] Data was analysed using multiple t-tests and statistical significance determined at each time point.

A549 cell line = assay: Porphyrin accumulation (PpIX fluorescence) in A549 cells; assay type: cell-based, human; settings: tested 0.1 to 3.3 mM
Experimental: (§2) Human bladder carcinoma cell line T24 (ATTC® HTB-4™), human lung adenocarcinoma cell line A549 (ATTC® CCL-185™), human prostate cancer cell line PC-3 (ATTC® CRL-1435™), and human glioblastoma cell line U-87Mg (ATTC® HTB-14™) were grown as monolayers and maintained in DMEM^+GlutaMAX™-I medium, F12K nutrient mix, and MEM, respectively. Culture media were supplemented with 10% fetal calf serum (FCS) and […] streptomycin and 100 IU/ml penicillin. Cells were cultivated at 37° C. in humidified 95% air and 5% CO2 atmosphere and routinely maintained by serial passage in a new medium every 2-5 days, depending on the cell type.
(§3) Cell viability was measured using an MTT assay. T24 (5000 cells/well), PC3 (12000 cells/well), A549 (10000 cells/well) and U87Mg (10000 cells/well) were seeded in a 96-well plate and grown 12 to 18 hours. Then, the medium was replaced with medium containing increasing concentrations of different compounds of the invention (from 0.1 to 3.3 mM) and PPIX fluorescence was recorded with a plate reader (Safire, Tecan, Switzerland) at different time points (1, 2, 4, 6, 8 and 24 h). Excitation wavelength was set at 405 nm and emission wavelength at 630 nm. […] After background subtraction, porphyrin accumulation was calculated according to the fluorescence intensity at 635 nm.

T24 cell line = assay: Porphyrin accumulation (PpIX fluorescence) in T24 cells; assay type: cell-based, human; settings: tested 0.1 to 3.3 mM
Experimental: as §2, §3

U87-MG cell line = assay: Porphyrin accumulation (PpIX fluorescence) in U87-MG cells; assay type: cell-based, human; settings: tested 0.1 to 3.3 mM
Experimental: as §2, §3

PC3 cell line = assay: Porphyrin accumulation (PpIX fluorescence) in PC3 cells; assay type: cell-based, human; settings: for porphyrin synthesis capability (fluorescence kinetics) compared to ALA-hex: 1 mM; for concentration for optimal (highest) porphyrin formation: tested 0.1 to 3.3 mM
Experimental: as §2
Cell viability was measured using an MTT assay. T24 (5000 cells/well), PC3 (12000 cells/well), A549 (10000 cells/well) and U87Mg (10000 cells/well) were seeded in a 96-well plate and grown 12 to 18 hours. Then, the medium was replaced with medium containing increasing concentrations of different compounds of the invention (from 0.1 to 3.3 mM) and PPIX fluorescence was recorded with a plate reader (Safire, Tecan, Switzerland) at different time points (1, 2, 4, 6, 8 and 24 h). Excitation wavelength was set at 405 nm and emission wavelength at 630 nm. After 24 hours of incubation with different products, the cells were washed twice with DPBS and fresh medium was put into each well. They were then either irradiated with a light dose of 10 J/cm^2 or kept in the dark. After background subtraction, porphyrin accumulation was calculated according to the fluorescence intensity at 635 nm.

[3] = Nanoassembly formation and size by Dynamic Light scattering (DLS); assay type: physicochemical; settings: for formation of nanoassemblies in aqueous solution: ethanol solution added dropwise to MiliQ water; for average diameter of particles (DLS): nanomicelles 1 mg/mL in water
Experimental: 1 mg of compound 4 or compound 6 was dissolved in ethanol (300 μL). This solution was slowly added dropwise using a microsyringe to MiliQ water (1.2 mL) under magnetic stirring (500 RPM). […] The organic solvent was evaporated under reduced pressure (100 mbar) at 40° C. yielding the final solution of nanomicelles of 1 mg/mL which were analysed by Dynamic Light scattering (DLS) using Zetasizer Nano ZS machine (Malvern) and stored at ambient temperature. Dynamic Light scattering (DLS) results are presented under FIG. 4 for compound 4 (A) and for compound 6 (B) and show a high homogeneity in size of the particule population with an average diameter of about 73 nm for compound 4 and 98.5 nm for compound 6.

[4] = tested on: alkaline phosphatase from calf intestine; assay: In vitro enzymatic activation by alkaline phosphatase (UPLC); assay type: biochemical; settings: borate buffer pH 8.90, 0.5 mM magnesium chloride, 1 U to 100 U alkaline phosphatase, 37° C.
Experimental: The ability of compounds of the invention to release ALA in presence of a phosphatase was investigated as follows: In vitro activation of compounds of interest by alkaline phosphatase was assayed by dissolving the compound of the invention (or ALA-Hex control) in 20 mM borate buffer at pH 8.90 containing 0.5 mM magnesium chloride and 1 U to 100 U of alkaline phosphatase from calf intestine (Applichem). The solution was kept at 37° C. and assayed at different time points. Quantification of the starting material and degradation products was performed by UPLC using the Thermo Scientific Accela UPLC-MS system. The column used was Macherey-Nagel Nucleodur C18 Gravity 50/2 1.8 μm. […] aliquots were injected and eluted using appropriate acetonitrile and ammonium formate buffer (10 mM) ratio with isocratic elution according to the compound of invention. The quantification was performed by integrating AUCs of the chromatograms of the peaks of interest at 220 nm.

formation of nanoassemblies in aqueous solution [3] | average diameter of particles (DLS) [3] | SMILES | increase in LD50 compared to 5-ALA-Hex (chick embryos) | LD50 at 24 h [1] [µmol/kg] | chemical stability (% of compound remaining in solution versus time) as compared to ALA-Hex [2] | tumor fluorescence signal / contrast (CAM U87Mg spheroid tumor) | concentration for optimal (highest) porphyrin formation (A549 cell line) [mM] | concentration for optimal (highest) porphyrin formation (T24 cell line) [mM] | concentration for optimal (highest) porphyrin formation (U87-MG cell line) [mM] | porphyrin synthesis capability (fluorescence kinetics) compared to ALA-hex (PC3 cell line) | concentration for optimal (highest) porphyrin formation (PC3 cell line) [mM] | LD50 (chick embryos; intravenous injection, viability 24 h after injection) [µmol/kg] | release of ALA upon activation of a phosphatase [4] | time post injection at which fluorescence started to outline the tumors (CAM U87Mg spheroid tumor; intravenous into CAM vasculature) [min]
– | – | CCCCCCOC(=O)CCC(=O)CNP(=O)(O)Oc1ccccc1 [Compound 1, Triethylammonium salt of hexyl 5-((hydroxy(phenoxy)phosphoryl)amino)-4-oxopentanoate] | 7 fold | 500 | increased chemical stability | delayed onset of the fluorescence signal but a robust contrast | 3.3 | 3.3 | 1.0 | comparable porphyrin synthesis capability | 3.3 | – | – | –
Nanoassemblies formed spontaneously | about 73 nm | CCCCCCOC(=O)CCC(=O)CNP(=O)(O)OCCC/C(C)=C/CC/C(C)=C/CC/C=C(\C)CC/C=C(\C)CCC=C(C)C [Compound 4, Hexyl 5-((hydroxy(((4E,8E,12E,16E)-4,8,13,17,21-pentamethyldocosa-4,8,12,16,20-pentaen-1-yl)oxy)phosphoryl)amino)-4-oxopentanoate] | – | – | – | – | – | – | – | – | – | – | – | –
– | – | CCCCCCOC(=O)CCC(=O)CN [Compound 5-ALA-Hex, 5-ALA-hexyl ester, reference compound] | – | – | – | – | – | – | – | – | – | 75 | – | –
Nanoassemblies formed spontaneously | ~98.5 nm | CCCCCCOC(=O)CCC(=O)CNP(=O)(NCC(=O)CCC(=O)OCCCCCC)OCCC/C(C)=C/CC/C(C)=C/CC/C=C(\C)CC/C=C(\C)CCC=C(C)C [Compound 6, Bis-hexyl 5-((hydroxy(((4E,8E,12E,16E)-4,8,13,17,21-pentamethyldocosa-4,8,12,16,20-pentaen-1-yl)oxy)phosphoryl)bis-amino)-4-oxopentanoate] | – | – | – | – | – | – | – | – | – | – | – | –
– | – | CCCCCCOC(=O)CCC(=O)CNC(=O)OCOP(=O)(O)O [Compound 7, hexyl 4-oxo-5-((((phosphonooxy)methoxy)carbonyl)amino)pentanoate] | several fold | 200 | increased chemical stability | excellent and statistically significant signal to background at 1 h and also at 2 h | 0.33 | 0.1 | 0.1 | comparable porphyrin synthesis capability | 0.33 | – | slower than the one from compound 1 | 30
